Earlier results, collected in US9943488B2, “Gamma hydroxybutyric acid granules” (DEBREGEAS ET ASSOCIES PHARMA, priority 2011, dated 2018).

Conditions: after oral administration

## O=C(O)CCCO [GHB, Gamma-hydroxybutyric acid]
  Absolute bio-availability: 25%
